The record followed here is patent US20190209509A1, “Hepatoprotective potential of Calebin A” (priority 2018, published 2019).

Experiment [1] relates to C2C12 myotubes (muscle cells). The experiment in a line: Glucose uptake assay (2-NBDG, flow cytometry) in muscle cells. It is filed as cell-based. The note with it: concentration printed as 3004, versus Metformin 200 μM. The method, then: The skeletal muscle cell line C2C12 myoblasts (procured from ATCC) were maintained in DMEM supplemented with 10% Fetal Bovine Serum at 37° C. with 5% CO2. Twenty thousand cells per well were seeded in a 24 well plate. When the cells reached 80-90% confluence, differentiation was induced by replacing the growth medium with DMEM containing 1% horse serum. Experiments were performed in completely differentiated C2C12 myotubes after 4-5 days in differentiation medium. Cells were then treated with 0.5% BSA in low glucose media for 16 hours and washed with cold Krebs-Ringer phosphate buffer without glucose. Cells were then treated with different non cytotoxic concentrations of samples in low glucose DMEM media with or without insulin at a concentration of 0.1 μM for 30 minutes at 37° C. Cells were then washed with cold PBS and stained with 5 μM of a fluorescent D-glucose analog 2-[N-(7-nitrobenz-2-oxa-1,3-diazol-4-yl) amino]-2-deoxy-D-glucose (2-NBDG) for 15 minutes in dark followed by flow cytometric detection of fluorescence produced by the cells (FIG. 3)
(Flow cytometry measures light scatter and fluorescence of single cells or particles in a stream.)

Experiment [2] relates to HepG2 cells. The experiment in a line: Protection from alcohol induced toxicity, Sulphorhodamine B assay. The following applies: alcohol 1000 mM, 72 hours. The format is cell-based, Human. On the procedure: (§1) Human HepG2 cells (procured from NCCS, Pune) were cultured in Dulbecco's Modified Eagle Medium (DMEM) supplemented with 10% fetal bovine serum (FBS), 40 μgml^−1 gentamycin at 37° C. in an atmosphere of 5% CO2. When the cells reached 80-90% confluence, they were trypsinized and plated at 5000 cells per well in a 96-well microplate. After 24 hours of seeding, alcohol at a concentration of 1000 mM was added along with different non cytotoxic concentrations of Calebin. Sulphorhodamine B assay was performed after 72 hours of treatment to determine the number of viable cells and percentage protection was calculated (FIG. 1).
Background: The SRB assay estimates cell density from bound dye.

Experiment [3] relates to HepG2 cells. The experiment in a line: Protection from acetaminophen (paracetamol) induced toxicity, Sulphorhodamine B assay. The format is cell-based, Human. The following applies: 6.25 μM, acetaminophen 4 mM, 72 hours. The method, then:
as §1, with “acetaminophen” for “alcohol”, “4” for “1000”, “2).” for “1).”

For experiment [4], the system named is adipocytes. Nature of the experiment: Glucose uptake assay in adipocytes. The format is cell-based. The note with it: concentration printed as 3004, versus Metformin 200 μM.

In the case of `COc1cc(/C=C/C(=O)COC(=O)/C=C/c2ccc(O)c(OC)c2)ccc1O` [Calebin A], the “increase in glucose uptake” value in experiment [1] and in experiment [4] was “almost as effective as Metformin” throughout. Further, the “percentage protection from alcohol induced toxicity” value is listed as “about 14%” in experiment [2] (6.25 μM); 30% in experiment [2] (12.5 μM); 23% in experiment [2] (progressively higher concentration, printed 6.25 μM). Besides, the “percentage protection against acetaminophen induced toxicity” value in experiment [3] was “about 15%”.
